According to patent publication US20240216364A1, “STRONG POTENTIATION OF TLR3 AGONISTS EFFECTS USING FXR AGONISTS AS A COMBINED TREATMENT” (ENYO PHARMA, priority 2021, published 2024):

These compounds were tested on HBV (assay: HBV replication in HBV-infected fresh primary human hepatocytes (PHH): secreted HBsAg, HBeAg, HBV DNA). Details: FXR agonist 1 μM combined with Riboxxol 5 μg/mL, FIG. 5.
Assay type: cell-based, HBV (genotype D)
Protocol: Primary human hepatocytes (PHH) were freshly prepared from human liver resection obtained from the Centre Léon Bérard (Lyon) with French ministerial authorizations (AC 2013-1871, DC 2013-1870, AFNOR NF 96 900 sept 2011) as previously described (Lecluyse, E. L. & Alexandre, E. Methods Mol. Biol. Clifton NJ 640, 57-82 (2010)).
HBV stocks (genotype D, Genbank ID U95551) were prepared using the HepAD38 cell line according to previously described protocols (Ladner, S. K. et al. Antimicrob. Agents Chemother. 41, 1715-1720 (1997)). Supernatants containing HBV particles were clarified (0.45 μm filter) and concentrated with 8% PEG 8000 (Sigma-Aldrich). HBV DNA was quantified using the AmpliPrep/COBAS® TaqMan® HBV Test (Roche).
EYP-001 was provided by Enyo Pharma. A stock at 30 mM was constituted in DMSO, and working concentrations were obtained by dilution into the culture medium extemporaneously. Riboxxol was purchased from Riboxx (Germany). It is a synthetic double-stranded RNA (dsRNA), has a length of 50 bp, and is composed of cytosines, inosines and guanosines. It is a pure agonist of TLR3, with no leakiness toward RIG-1 or MDA5 (Lucifora J et al. Sci Rep. 2018 Mar. 29; 8(1):5390). A stock solution was constituted at 1 mg/mL in RNAse-free water. Poly(I:C) High and Low molecular weight were purchased from InvivoGen (USA). They are both double stranded RNA composed of inosine and cytosine (Low: 0.2 to 1 kb, High: 1.5 to 8 kb) and are TLR3 agonists. A stock solution at 1 mg/mL was constituted in RNAse-free water. Tropifexor, Cilofexor and Nidufexor were purchased from TargetMol (USA), GW4064 from Selleckchem (USA), Fexaramine and OCA from Euromedex (France). Those 6 FXR agonists were used as described below. All the stock solutions were at 10 mM (Cilofexor, Tropifexor, Nidufexor, GW4064) or 50 mM (Fexaramine, OCA) in DMSO.
HBs and HBe antigens secreted in cells supernatant were quantified, after required dilutions, with Autobio kits (AutoBio, China) according to manufacturer's protocol.
To determine the combined impact of FXR agonists and TLR3 agonists on HBV infection, in vitro infections were performed in primary human hepatocytes (PHH). PHH are naturally susceptible to infection with HBV virions produced in vitro, leading to very high levels of replication of the virus. Freshly prepared and seeded PHH were infected with HBV at a multiplicity of infection of 500 vge/cell. From day 4 to 12 post-infection, cells were treated with the FXR agonist EYP001 at 30 μM, or with a TLR3 agonist (Riboxxol) at 5 μg/mL, or with the combination of the FXR agonist EYP001 at 30 μM with a TLR3 agonist (Riboxxol) at 5 μg/mL, or with the vehicle. Supernatants were harvested at day 12 for secreted HBV DNA and secreted antigens (HBsAg and HBeAg) quantification. Results are expressed as the mean+SD of two independent experiments, each performed with at least three biological replicates. […]
A third experiment was conducted the same way, in the same model of HBV infected PHH. In this experiment, 6 different FXR agonists (Tropifexor at 1 μM, Cilofexor at 10 μM, Nidufexor at 10 μM, GW4064 at 10 μM, Fexaramine at 10 μM and OCA at 10 μM) were combined with the TLR3 agonist Riboxxol at 5 μg/mL.

SMILES | HBeAg level, effect of the combination versus the TLR3 agonist alone | HBsAg level, effect of the combination versus the TLR3 agonist alone
O=C(O)c1cc(F)c2nc(N3[C@@H]4CC[C@H]3C[C@@H](OCc3c(-c5ccccc5OC(F)(F)F)noc3C3CC3)C4)sc2c1 [Tropifexor, 2-(3-((5-cyclopropyl-3-(2-(trifluoromethoxy)phenyl)isoxazol-4-yl)methoxy)-8-azabicyclo[3.2.1]octan-8-yl)-4-fluorobenzo[d]thiazole-6-carboxylic acid] | improve the antiviral effects | improve the antiviral effects

Same assay, conditions: FXR agonist 10 μM combined with Riboxxol 5 μg/mL, FIG. 5

SMILES | HBeAg level, effect of the combination versus the TLR3 agonist alone | HBsAg level, effect of the combination versus the TLR3 agonist alone
Cn1nc(C(=O)N(Cc2ccccc2)Cc2ccc(C(=O)O)cc2)c2c1-c1cc(Cl)ccc1OC2 [Nidufexor, 4-[(N-benzyl-8-chloro-1-methyl-1,4-dihydro[1]benzopyrano[4,3-c]pyrazole-3-carboxamido)methyl]benzoic acid] | improve the antiviral effects | improve the antiviral effects
CC[C@H]1[C@@H](O)[C@@H]2[C@H](CC[C@]3(C)[C@@H]([C@H](C)CCC(=O)O)CC[C@@H]23)[C@@]2(C)CC[C@@H](O)C[C@@H]12 [OCA, Cholan-24-oic acid, 6-ethyl-3,7-dihydroxy-, (3α,5β,6α,7α)-] | improve the antiviral effects | improve the antiviral effects
CC(C)c1onc(-c2c(Cl)cccc2Cl)c1COc1ccc(/C=C/c2cccc(C(=O)O)c2)c(Cl)c1 [GW4064, 3-[2-[2-Chloro-4-[[3-(2,6-dichlorophenyl)-5-(1-methylethyl)-4-isoxazolyl]methoxy]phenyl]ethenyl]benzoic acid] | improve the antiviral effects | improve the antiviral effects
O=C(O)c1ccnc(N2CC(O)(c3ccc(OCc4c(-c5c(Cl)cccc5Cl)noc4C4CC4)cc3Cl)C2)c1 [Cilofexor, 2-[3-[2-Chloro-4-[[5-cyclopropyl-3-(2,6-dichlorophenyl)-4-isoxazolyl]methoxy]phenyl]-3-hydroxy-1-azetidinyl]-4-pyridinecarboxylic acid] | improve the antiviral effects | improve the antiviral effects
COC(=O)/C=C/c1cccc(N(Cc2ccc(-c3ccc(N(C)C)cc3)cc2)C(=O)C2CCCCC2)c1 [Fexaramine] | improve the antiviral effects | improve the antiviral effects
